18 molecules from US9855268B2, “Triazolo[4,5-d]pyrimidine derivatives” (Merck Patent GmbH, priority 2013, dated 2018) can be followed below.

In experiment [1] the target is T1, GCN2 (Homo sapiens, UniProt Q9P2K8). As to the kind of experiment: GCN2 enzyme assay (TR-FRET Lanthascreen, GFP-eIF2alpha phosphorylation). The class given is biochemical. The settings on record: 10 μM ATP, 80 nM GFP-eIF2a, 30 nM GCN2. In outline: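 Kinase reaction with 10 μM ATP and 80 nM GFP-labelled eIF2alpha substrate at room temperature, stopped with EDTA. Phospho-eIF2alpha detected by TR-FRET between antibody and GFP-substrate, excitation at 340 nm.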
Target sequence in this assay (Q9P2K8 whole entry, species assumed): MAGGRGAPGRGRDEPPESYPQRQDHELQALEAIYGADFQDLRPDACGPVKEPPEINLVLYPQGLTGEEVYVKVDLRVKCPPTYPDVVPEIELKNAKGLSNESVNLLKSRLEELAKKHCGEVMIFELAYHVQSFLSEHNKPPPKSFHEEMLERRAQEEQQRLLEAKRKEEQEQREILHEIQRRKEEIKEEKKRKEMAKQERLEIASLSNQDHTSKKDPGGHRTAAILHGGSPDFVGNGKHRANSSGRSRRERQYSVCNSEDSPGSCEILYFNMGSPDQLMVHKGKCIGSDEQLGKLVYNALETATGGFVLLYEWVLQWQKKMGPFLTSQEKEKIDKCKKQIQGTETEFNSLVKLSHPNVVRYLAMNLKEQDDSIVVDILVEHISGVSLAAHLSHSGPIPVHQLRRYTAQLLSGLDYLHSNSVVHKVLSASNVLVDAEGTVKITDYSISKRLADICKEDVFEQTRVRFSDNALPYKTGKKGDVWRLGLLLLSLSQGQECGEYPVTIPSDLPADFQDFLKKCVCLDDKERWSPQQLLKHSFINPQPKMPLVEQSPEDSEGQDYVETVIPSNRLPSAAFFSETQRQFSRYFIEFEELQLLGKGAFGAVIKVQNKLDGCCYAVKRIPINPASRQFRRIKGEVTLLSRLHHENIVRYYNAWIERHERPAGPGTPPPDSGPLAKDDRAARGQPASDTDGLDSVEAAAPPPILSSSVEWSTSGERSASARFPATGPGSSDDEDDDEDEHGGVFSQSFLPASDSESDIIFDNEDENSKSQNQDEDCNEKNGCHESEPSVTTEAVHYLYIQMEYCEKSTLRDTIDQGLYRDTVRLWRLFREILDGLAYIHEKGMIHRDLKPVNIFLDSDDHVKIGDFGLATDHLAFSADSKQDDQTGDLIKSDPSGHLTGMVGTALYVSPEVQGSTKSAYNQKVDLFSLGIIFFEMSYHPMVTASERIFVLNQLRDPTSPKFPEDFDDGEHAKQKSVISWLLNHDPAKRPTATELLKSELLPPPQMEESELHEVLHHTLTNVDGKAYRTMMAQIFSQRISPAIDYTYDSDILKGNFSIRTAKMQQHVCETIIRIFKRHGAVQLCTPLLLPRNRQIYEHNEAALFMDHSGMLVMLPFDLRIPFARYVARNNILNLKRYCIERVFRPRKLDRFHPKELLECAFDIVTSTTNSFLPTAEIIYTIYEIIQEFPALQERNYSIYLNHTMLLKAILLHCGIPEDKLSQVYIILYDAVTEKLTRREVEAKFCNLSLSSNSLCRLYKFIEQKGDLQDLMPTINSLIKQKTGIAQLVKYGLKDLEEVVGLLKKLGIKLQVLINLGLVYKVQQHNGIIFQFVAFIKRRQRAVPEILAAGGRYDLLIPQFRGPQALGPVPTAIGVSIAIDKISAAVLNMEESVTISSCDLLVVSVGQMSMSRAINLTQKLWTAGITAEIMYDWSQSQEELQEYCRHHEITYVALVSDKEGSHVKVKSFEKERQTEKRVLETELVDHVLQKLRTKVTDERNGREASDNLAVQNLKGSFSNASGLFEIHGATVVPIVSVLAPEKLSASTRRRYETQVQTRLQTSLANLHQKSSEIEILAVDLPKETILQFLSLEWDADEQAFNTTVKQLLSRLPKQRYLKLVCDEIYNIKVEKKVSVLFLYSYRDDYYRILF
A general note: Time-resolved FRET reads energy transfer from a long-lived donor to a nearby acceptor.

The target of the next experiment is GSK3α(h) (Homo sapiens, UniProt P49840). The experiment in a line: GSK3α radiometric kinase assay (33P-ATP, phospho GS2 peptide). The class given is biochemical. The following applies: read-out: IC50 GSK3α (enzyme assay). The procedure, abridged:
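Human GSK3α incubated with 20 μM phospho-GS2 peptide in 8 mM MOPS pH 7,0, 10 mM Mg-acetate and [γ-33P]ATP (concentration as required), started with MgATP. After 40 minutes at room temperature, stopped with phosphoric acid; 33P incorporation measured by filtermat spotting and scintillation counting.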

A further experiment concerns the target GSK3β(h) (Homo sapiens, UniProt P49841). As to the kind of experiment: GSK3β radiometric kinase assay (33P-ATP, phospho GS2 peptide). The class given is biochemical. The settings on record: read-out: IC50 GSK3β (enzyme assay). As for the experimental part: GSK3β(h) is incubated with 8 mM MOPS pH 7,0, 0,2 mM EDTA, 20 μM
[…](p)EDEEE (phosphor GS2 peptide), 10 mM Mg-acetate and [gamma-33P-ATP](specific activity approx. 500 cpm/Pmol, concentration as required). The reaction is initiated by the addition of the MgATP. After incubation for 40 minutes at the room temperature, the Reaction is stopped by the addition of 3% phosphoric acid solution. 10 μL of reaction is then spotted onto a P30 filtermat and washed three times for 5 minutes in 50 mM phosphoric acid and once in methanol prior to drying and scintillation counting.

For experiment [2], the target named is T1, GCN2. As to the kind of experiment: Cellular assay of GCN2 activity (phospho-eIF2alpha immunocytochemistry after tryptophanol). The class given is cell-based. Set-up: endogenous in cells; host or cells: U2OS. The settings on record: Human U2OS cells, 2 h compound, 600 μM tryptophanol 30 min. The procedure, abridged:
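Readout in human U2OS cells: compound pretreatment 2 h, then tryptophanol (600 μM final) for 30 min to trigger GCN2 signalling. Fixed, permeabilised cells quantified by immunocytochemistry for phosphorylation, normalised to DMSO controls as % effect; IC50 from concentration-response.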
Target sequence in this assay (Q9P2K8 whole entry): as the sequence (Q9P2K8 whole entry, species assumed) above

pIC50: −log10 of the molar value. Like-named read-outs stand apart in the source and are kept apart here.

GSK3α(h), sequence (P49840 whole entry): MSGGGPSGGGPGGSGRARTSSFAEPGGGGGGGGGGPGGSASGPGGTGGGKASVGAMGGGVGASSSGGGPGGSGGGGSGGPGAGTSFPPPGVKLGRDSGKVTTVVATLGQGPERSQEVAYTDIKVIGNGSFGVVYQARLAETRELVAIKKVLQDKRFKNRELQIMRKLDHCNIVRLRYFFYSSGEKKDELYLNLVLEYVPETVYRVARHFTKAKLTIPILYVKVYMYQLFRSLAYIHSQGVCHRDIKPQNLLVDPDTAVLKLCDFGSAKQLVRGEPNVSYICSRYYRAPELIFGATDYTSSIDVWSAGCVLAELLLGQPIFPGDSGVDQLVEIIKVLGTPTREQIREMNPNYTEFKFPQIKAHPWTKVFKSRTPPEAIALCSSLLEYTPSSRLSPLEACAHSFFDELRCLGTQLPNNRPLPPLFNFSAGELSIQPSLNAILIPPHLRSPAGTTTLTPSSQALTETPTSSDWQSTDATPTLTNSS
GSK3β(h), sequence (P49841 whole entry): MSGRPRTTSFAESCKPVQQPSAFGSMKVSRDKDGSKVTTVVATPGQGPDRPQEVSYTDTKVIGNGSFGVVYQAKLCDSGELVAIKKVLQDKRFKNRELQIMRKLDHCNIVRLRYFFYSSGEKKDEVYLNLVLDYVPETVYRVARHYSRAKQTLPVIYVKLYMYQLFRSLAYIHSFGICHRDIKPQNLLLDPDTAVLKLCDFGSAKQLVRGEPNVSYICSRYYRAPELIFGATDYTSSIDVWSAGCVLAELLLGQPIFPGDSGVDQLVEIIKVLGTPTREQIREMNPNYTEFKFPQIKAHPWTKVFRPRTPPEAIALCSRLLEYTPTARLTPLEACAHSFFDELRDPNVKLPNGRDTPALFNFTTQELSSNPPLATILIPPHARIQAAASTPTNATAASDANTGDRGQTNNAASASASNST

The term pIC50 denotes the negative decadic logarithm of the IC50, by convention in mol/L. `COc1ccc(-n2nnc3cnc(N[C@@H]4CCC[C@@H](C(N)=O)C4)nc32)cc1` (relative stereo) [A148, (trans)-3-[3-(4-methoxy-phenyl)-3H-[1,2,3]triazolo[4,5-d]pyrimidin-5-ylamino]-cyclohexanecarboxylic acid amide]: the values for the pIC50 against GCN2 [1], on GSK3α(h) and on GSK3β(h) were over 6.00, over 6.00 and 5.30 to 6.00, respectively.

Take `Cc1ncc2cc(-n3nnc4cnc(N[C@@H]5CC[C@@H](O)C5)nc43)ccc2n1` (relative stereo) [A209, (trans)-3-[3-(2-methyl-quinazolin-6-yl)-3H-[1,2,3]triazolo[4,5-d]pyrimidin-5-ylamino]-cyclopentanol]: the pIC50 against GCN2 [1], on GSK3α(h) and on GSK3β(h) was over 6.00 throughout.

For `COc1ccc(-n2nnc3cnc(N[C@H]4CC[C@H](S(N)(=O)=O)C4)nc32)cc1` (relative stereo) [A288, (trans)-3-[3-(4-methoxy-phenyl)-3H-[1,2,3]triazolo[4,5-d]pyrimidin-5-ylamino]-cyclopentanesulfonic acid amide], the pIC50 at GCN2 [1], on GSK3α(h) and on GSK3β(h) was over 6.00 each time.

Take `COc1ccc(-n2nnc3cnc(N[C@@H]4CCN(c5cnn(C)c5)C4)nc32)cc1` [A115, [3-(4-methoxy-phenyl)-3H-[1,2,3]triazolo[4,5-d]pyrimidin-5-yl]-[(R)-1-(1-methyl-1H-pyrazol-4-yl)-pyrrolidin-3-yl]-amine]: the pIC50 at GCN2 [1], at GSK3α(h) and on GSK3β(h) was over 6.00 in each case.

As to `N[C@H]1CC[C@@H](Nc2ncc3nnn(-c4ccc5ncccc5c4)c3n2)C1` [A119, (1S,3R)-N3-(3-quinolin-6-yl-3H-[1,2,3]triazolo[4,5-d]pyrimidin-5-yl)-cyclopentane-1,3-diamine], the pIC50 against GCN2 [1] is over 6.00; on GSK3α(h) it was over 6.00; at GSK3β(h) it was 5.30 to 6.00.

Consider `CN1CCN(CCC(=O)N2CC[C@@H](Nc3ncc4nnn(-c5ccc6ncccc6c5)c4n3)C2)CC1` [A133, 3-(4-methyl-piperazin-1-yl)-1-[(R)-3-(3-quinolin-6-yl-3H-[1,2,3]triazolo[4,5-d]pyrimidin-5-ylamino)-pyrrolidin-1-yl]-propan-1-one], for which the pIC50 was over 6.00 against GCN2 [1], over 6.00 on GSK3α(h) and 5.30 to 6.00 at GSK3β(h).

Take `Cc1ccc2cc(-n3nnc4cnc(N[C@@H]5CCN(C(=O)CCN6CCN(C)CC6)C5)nc43)ccc2n1` [A134, 3-(4-methyl-piperazin-1-yl)-1-{(R)-3-[3-(2-methyl-quinolin-6-yl)-3H-[1,2,3]triazolo[4,5-d]pyrimidin-5-ylamino]-pyrrolidin-1-yl}-propan-1-one]: the pIC50 is over 6.00 on GCN2 [1], over 6.00 on GSK3α(h) and 5.30 to 6.00 on GSK3β(h).

`COc1ccc(-n2nnc3cnc(N[C@@H]4CC[C@H](C(N)=O)C4)nc32)cc1` [A136, (1S,3R)-3-[3-(4-methoxy-phenyl)-3H-[1,2,3]triazolo[4,5-d]pyrimidin-5-ylamino]-cyclopentanecarboxylic acid amide]: the pIC50 against GCN2 [1], on GSK3α(h) and at GSK3β(h) was over 6.00 throughout.

As for `COc1ccc(-n2nnc3cnc(N[C@H]4CC[C@H](C(N)=O)C4)nc32)cc1` [A137, (1S,3S)-3-[3-(4-methoxy-phenyl)-3H-[1,2,3]triazolo[4,5-d]pyrimidin-5-ylamino]-cyclopentanecarboxylic acid amide], the pIC50 against GCN2 [1], on GSK3α(h) and on GSK3β(h) was over 6.00 in each case.

As for `COc1ccc(-n2nnc3cnc(N[C@H]4C[C@H](C(N)=O)C4)nc32)cc1` [A145, (trans)-3-[3-(4-methoxy-phenyl)-3H-[1,2,3]triazolo[4,5-d]pyrimidin-5-ylamino]-cyclobutanecarboxylic acid amide], the pIC50 against GCN2 [1], at GSK3α(h) and at GSK3β(h) was over 6.00 in each case.

With `NC(=O)[C@@H]1CC[C@@H](Nc2ncc3nnn(-c4ccc(N5CCCC5)cc4)c3n2)C1` [A146, (1R,3R)-3-[3-(4-pyrrolidin-1-yl-phenyl)-3H-[1,2,3]triazolo[4,5-d]pyrimidin-5-ylamino]-cyclopentanecarboxylic acid amide], the pIC50 at GCN2 [1], at GSK3α(h) and at GSK3β(h) was over 6.00 throughout.

Take `NC(=O)[C@@H]1CC[C@@H](Nc2ncc3nnn(-c4ccc5c(c4)OCCO5)c3n2)C1` [A156, (1R,3R)-3-[3-(2,3-dihydro-benzo[1,4]dioxin-6-yl)-3H-[1,2,3]triazolo[4,5-d]pyrimidin-5-ylamino]-cyclopentanecarboxylic acid amide]: the pIC50 on GCN2 [1], at GSK3α(h) and at GSK3β(h) was over 6.00 throughout.

For the molecule `COCCn1cc(-n2nnc3cnc(N[C@@H]4CC[C@@H](C(N)=O)C4)nc32)cn1` [A159, (1R,3R)-3-{3-[1-(2-methoxy-ethyl)-1H-pyrazol-4-yl]-3H-[1,2,3]triazolo[4,5-d]-pyrimidin-5-ylamino}-cyclopentanecarboxylic acid amide], the pIC50 against GCN2 [1], on GSK3α(h) and at GSK3β(h) was over 6.00 throughout.

`NC(=O)[C@@H]1CC[C@@H](Nc2ncc3nnn(-c4ccc(OCCn5cccn5)cc4)c3n2)C1` [A160, (1R,3R)-3-{3-[4-(2-pyrazol-1-yl-ethoxy)-phenyl]-3H-[1,2,3]triazolo[4,5-d]-pyrimidin-5-ylamino}-cyclopentanecarboxylic acid amide]: the pIC50 against GCN2 [1], at GSK3α(h) and at GSK3β(h) was over 6.00 throughout.

Regarding `COc1ccc(-n2nnc3cnc(N[C@@H]4CC[C@@H](C(=O)N5CCN(C)CC5)C4)nc32)cc1` [A241, {(1R,3R)-3-[3-(4-methoxy-phenyl)-3H-[1,2,3]triazolo[4,5-d]pyrimidin-5-ylamino]-cyclopentyl}-(4-methyl-piperazin-1-yl)-methanone], the pIC50 against GCN2 [1] was over 6.00; at GSK3α(h), over 6.00; at GCN2 [2], 5.30 to 6.00.

For `CN1CCN(CCNC(=O)[C@H]2CC[C@@H](Nc3ncc4nnn(-c5ccc6ncccc6c5)c4n3)C2)CC1` [A242, (1S,3R)-3-(3-quinolin-6-yl-3H-[1,2,3]triazolo[4,5-d]pyrimidin-5-ylamino)-cyclopentanecarboxylic acid [2-(4-methyl-piperazin-1-yl)-ethyl]-amide], the results for the pIC50 on GCN2 [1], on GSK3α(h) and at GCN2 [2] were over 6.00, over 6.00 and 5.30 to 6.00, respectively.

On to `NC(=O)[C@@H]1CC[C@@H](Nc2ncc3nnn(-c4ccc(-c5cnn(CCO)c5)cc4)c3n2)C1` [A255, (1R,3R)-3-(3-{4-[1-(2-hydroxy-ethyl)-1H-pyrazol-4-yl]-phenyl}-3H-[1,2,3]triazolo[4,5-d]pyridimdin-5-ylamino)-cyclopentanecarboxylic acid amide], for which the pIC50 against GCN2 [1] is over 6.00; on GSK3α(h) (10 μM ATP or Km ATP) it was over 6.00; against GCN2 [2], 5.30 to 6.00.

On to `NC(=O)[C@H]1CC[C@@H](Nc2ncc3nnn(-c4ccc(-c5cnn(CCO)c5)cc4)c3n2)C1` [A258, (1S,3R)-3-(3-{4-[1-(2-hydroxy-ethyl)-1H-pyrazol-4-yl]-phenyl}-3H-[1,2,3]triazolo[4,5-d]pyrimidin-5-ylamino)-cyclopentanecarboxylic acid amide], for which the pIC50 against GCN2 [1] was over 6.00; at GSK3α(h), over 6.00; against GCN2 [2], 5.30 to 6.00.
